According to patent US11426473B2, “Nitrogen-containing compound or salt thereof, or metal complex thereof” (FUJIFILM Corporation, priority 2013, dated 2022):

Assays:
Integrin αvβ3 = molecular target: T1, Integrin αvβ3 (Homo sapiens, UniProt P05106+P06756); assay: Integrin αvβ3 binding affinity test; conditions: inhibition of biotinylated vitronectin binding to immobilized αvβ3; read-out: IC50 value αv β3
T1 construct: purchased Chemicon International, Inc
Experimental: (§1) […] αvβ3 (Chemicon International, Inc.) was immobilized on each well of a 96-well plate (Corning Inc.). Each well was blocked with a 1% Block Ace (DS Pharma Biomedical Co., Ltd) solution and then washed with T-PBS (PBS containing 0.05% Tween 20). Evaluation compound solutions having a 2-fold concentration (10 concentrations of 3.16-fold dilutions from 0.3 μmol/L, buffer (20 mM Tris-HCl pH 7.5, 150 mM NaCl, 1 mM CaCl2, 1 mM MgCl2, and 1 mM MnCl2)) and a 4 μg/mL biotinylated vitronectin solution (vitronectin (Upstate Biotechnology Inc.) was labeled with EZ-Link Sulfo-NHS-Biotinylation Kit (Pierce/Thermo Fisher Scientific Inc.) and then concentration-adjusted) were each added at 50 μL/well, and the plate was shaken at room temperature for 2 hours. After washing with T-PBS, a 0.2 μg/mL avidin peroxidase (Pierce/Thermo Fisher Scientific Inc.) solution was added thereto, and the plate was shaken at room temperature for 1 hour. After washing with T-PBS, color was developed by an o-phenylenediamine (Sigma-Aldrich Inc.) solution (the reaction was terminated by the addition of 4 mol/L sulfuric acid), and the absorbance was measured (490 nm, Reference: 595 nm). The IC50 value was calculated using XLfit 3.0 (ID Business Solutions Ltd.). RGDfV (Bachem AG) was measured in duplicate as a QC sample for each plate.

Integrin αvβ5 = molecular target: T2, Integrin αvβ5 (Homo sapiens, UniProt P06756+P18084); assay: Integrin αvβ5 binding affinity test; conditions: inhibition of biotinylated vitronectin binding to immobilized αvβ5; read-out: IC50 value αvβ5
T2 construct: purchased Chemicon International, Inc
T2 sequence (P06756 31-889 limits assumed): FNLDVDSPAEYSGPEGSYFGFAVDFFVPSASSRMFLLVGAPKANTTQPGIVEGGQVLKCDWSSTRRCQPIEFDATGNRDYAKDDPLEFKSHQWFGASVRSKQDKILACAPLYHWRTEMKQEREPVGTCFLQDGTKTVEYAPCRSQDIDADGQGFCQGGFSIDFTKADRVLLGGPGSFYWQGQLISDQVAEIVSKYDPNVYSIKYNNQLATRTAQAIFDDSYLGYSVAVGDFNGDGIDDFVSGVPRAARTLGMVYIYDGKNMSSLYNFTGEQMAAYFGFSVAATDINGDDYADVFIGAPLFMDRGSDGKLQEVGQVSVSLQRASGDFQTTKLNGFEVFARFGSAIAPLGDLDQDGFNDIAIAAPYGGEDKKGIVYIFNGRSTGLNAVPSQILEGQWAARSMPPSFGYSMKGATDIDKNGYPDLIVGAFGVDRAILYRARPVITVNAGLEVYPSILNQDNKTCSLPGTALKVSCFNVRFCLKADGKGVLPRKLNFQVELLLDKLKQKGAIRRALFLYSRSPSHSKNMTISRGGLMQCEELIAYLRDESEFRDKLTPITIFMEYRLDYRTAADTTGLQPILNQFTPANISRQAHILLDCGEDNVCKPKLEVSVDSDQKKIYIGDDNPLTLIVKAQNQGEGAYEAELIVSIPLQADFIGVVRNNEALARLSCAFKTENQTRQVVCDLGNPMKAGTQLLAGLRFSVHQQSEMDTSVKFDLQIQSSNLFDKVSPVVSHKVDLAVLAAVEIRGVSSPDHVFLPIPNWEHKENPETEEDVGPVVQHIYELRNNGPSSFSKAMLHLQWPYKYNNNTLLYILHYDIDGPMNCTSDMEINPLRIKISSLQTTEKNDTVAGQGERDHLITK
T2 sequence (P06756 891-1048 partner limits assumed): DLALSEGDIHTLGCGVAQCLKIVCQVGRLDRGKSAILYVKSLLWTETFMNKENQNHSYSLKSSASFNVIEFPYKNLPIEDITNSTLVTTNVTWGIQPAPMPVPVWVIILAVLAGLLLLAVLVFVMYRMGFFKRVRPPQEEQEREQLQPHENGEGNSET
T2 sequence (P18084 24-799): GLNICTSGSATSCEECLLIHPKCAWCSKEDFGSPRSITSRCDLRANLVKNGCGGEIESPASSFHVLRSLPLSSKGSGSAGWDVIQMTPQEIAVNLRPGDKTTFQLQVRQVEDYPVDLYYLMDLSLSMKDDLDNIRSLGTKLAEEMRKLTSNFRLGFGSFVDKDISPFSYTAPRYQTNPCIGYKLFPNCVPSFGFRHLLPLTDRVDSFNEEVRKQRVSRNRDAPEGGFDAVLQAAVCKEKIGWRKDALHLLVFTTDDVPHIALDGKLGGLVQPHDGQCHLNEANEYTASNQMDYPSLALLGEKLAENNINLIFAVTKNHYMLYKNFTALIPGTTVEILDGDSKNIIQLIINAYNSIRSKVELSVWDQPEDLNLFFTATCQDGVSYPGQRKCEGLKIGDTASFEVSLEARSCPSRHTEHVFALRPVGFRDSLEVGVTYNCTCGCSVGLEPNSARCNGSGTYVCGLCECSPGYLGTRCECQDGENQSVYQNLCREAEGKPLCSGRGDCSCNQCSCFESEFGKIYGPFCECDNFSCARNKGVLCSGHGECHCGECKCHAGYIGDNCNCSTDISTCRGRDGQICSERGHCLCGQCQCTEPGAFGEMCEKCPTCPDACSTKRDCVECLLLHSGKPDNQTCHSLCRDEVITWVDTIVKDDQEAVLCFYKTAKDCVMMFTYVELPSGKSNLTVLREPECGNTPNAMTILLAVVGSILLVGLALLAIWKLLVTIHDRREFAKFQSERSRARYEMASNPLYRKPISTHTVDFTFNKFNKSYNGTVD
Experimental: as §1, with “αvβ5” for “αvβ3”, “PBST (10 mM Na2HPO4 pH 7.5, 150 mM NaCl, and 0.01%” for “T-PBS (PBS containing 0.05%”, “PBST,” for “T-PBS,”

T1 sequence (P06756 31-889 limits assumed): as the sequence (P06756 31-889 limits assumed) above
T1 sequence (P06756 891-1048 partner limits assumed): as the sequence (P06756 891-1048 partner limits assumed) above
T1 sequence (P05106 27-788): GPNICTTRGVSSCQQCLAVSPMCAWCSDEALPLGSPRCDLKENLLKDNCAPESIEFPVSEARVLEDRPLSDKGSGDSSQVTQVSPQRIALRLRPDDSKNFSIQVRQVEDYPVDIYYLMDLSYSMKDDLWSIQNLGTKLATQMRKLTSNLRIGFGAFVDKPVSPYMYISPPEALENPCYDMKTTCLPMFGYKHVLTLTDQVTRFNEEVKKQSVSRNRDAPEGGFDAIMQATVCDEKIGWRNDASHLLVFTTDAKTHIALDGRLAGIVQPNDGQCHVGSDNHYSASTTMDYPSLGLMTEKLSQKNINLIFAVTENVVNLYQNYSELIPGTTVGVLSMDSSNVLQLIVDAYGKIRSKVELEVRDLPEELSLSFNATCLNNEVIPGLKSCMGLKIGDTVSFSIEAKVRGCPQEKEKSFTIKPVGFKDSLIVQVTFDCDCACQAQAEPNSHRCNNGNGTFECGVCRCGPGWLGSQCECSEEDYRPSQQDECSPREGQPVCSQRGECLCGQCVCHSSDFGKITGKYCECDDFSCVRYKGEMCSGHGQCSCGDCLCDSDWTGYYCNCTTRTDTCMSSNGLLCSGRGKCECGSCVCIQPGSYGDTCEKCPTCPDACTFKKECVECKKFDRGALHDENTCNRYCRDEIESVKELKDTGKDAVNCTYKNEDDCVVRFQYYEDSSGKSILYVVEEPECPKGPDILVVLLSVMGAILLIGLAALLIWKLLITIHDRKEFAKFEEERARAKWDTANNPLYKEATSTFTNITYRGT

Row | Structure (SMILES) | IC50 (Integrin αvβ3) [nM] | IC50 (Integrin αvβ5) [nM]
1 | Cc1cc(OCCCC(=O)NCCNC(=O)[C@H](CS(=O)(=O)O)NC(=O)[C@H](CS(=O)(=O)O)NC(=O)CN2CCN(CC(=O)O)CCN(CC(=O)O)CCN(CC(=O)O)CC2)cc(C)c1S(=O)(=O)N[C@@H](CNC(=O)c1ccc(CCc2ccc3c(n2)NCCC3)cc1)C(=O)O [Compound A8, 2,2′,2″-(10-((4R,7R)-16-(4-(N—((S)-1-carboxy-2-(4-(2-(5,6,7,8-tetrahydro-1,8-naphthyridin-2-yl)ethyl)benzamido)ethyl)sulfamoyl)-3,5-dimethylphenoxy)-2,5,8,13-tetraoxo-4,7-bis(sulfomethyl)-3,6,9,12-tetraazahexadecyl)-1,4,7,10-tetraazacyclododecane-1,4,7-triyl)triacetic acid] | < 1 | < 1
2 | Cc1cc(OCCCC(=O)NCCNC(=O)[C@H](CS(=O)(=O)O)NC(=O)CN2CCN(CC(=O)O)CCN(CC(=O)O)CCN(CC(=O)O)CC2)cc(C)c1S(=O)(=O)N[C@@H](CNC(=O)c1ccc(CCc2ccc3c(n2)NCCC3)cc1)C(=O)O [Compound B2, 2,2′,2″-(10-(2-(((R)-1-((2-(4-(4-(N—((S)-1-carboxy-2-(4-(2-(5,6,7,8-tetrahydro-1,8-naphthyridin-2-yl)ethyl)benzamido)ethyl)sulfamoyl)-3,5-dimethylphenoxy)butanamido)ethyl)amino)-1-oxo-3-sulfopropan-2-yl)amino)-2-oxoethyl)-1,4,7,10-tetraazacyclododecane-1,4,7-triyl)triacetic acid] | < 1 | < 1
3 | Cc1cc(OCCCC(=O)NCCNC(=O)COCCOCCNC(=O)CN2CCN(CC(=O)O)CCN(CC(=O)O)CCN(CC(=O)O)CC2)cc(C)c1S(=O)(=O)N[C@@H](CNC(=O)c1ccc(CCc2ccc3c(n2)NCCC3)cc1)C(=O)O [Compound D3, (S)-2,2′,2′-(10-(19-(4-(N-(1-carboxy-2-(4-(2-(5,6,7,8-tetrahydro-1,8-naphthyridin-2-yl)ethyl)benzamido)ethyl)sulfamoyl)-3,5-dimethylphenoxy)-2,11,16-trioxo-6,9-dioxa-3,12,15-triazanonadecyl)-1,4,7,10-tetraazacyclododecane-1,4,7-triyl)triacetic acid] | < 1 | < 1
4 | Cc1cc(OCCCC(=O)NCCNC(=O)COCCOCCNC(=O)COCCOCCNC(=O)CN2CCN(CC(=O)O)CCN(CC(=O)O)CCN(CC(=O)O)CC2)cc(C)c1S(=O)(=O)N[C@@H](CNC(=O)c1ccc(CCc2ccc3c(n2)NCCC3)cc1)C(=O)O [Compound F3, (S)-2,2′,2″-(10-(28-(4-(N-(1-carboxy-2-(4-(2-(5,6,7,8-tetrahydro-1,8-naphthyridin-2-yl)ethyl)benzamido)ethyl)sulfamoyl)-3,5-dimethylphenoxy)-2,11,20,25-tetraoxo-6,9,15,18-tetraoxa-3,12,21,24-tetraazaoctacosyl)-1,4,7,10-tetraazacyclododecane-1,4,7-triyl)triacetic acid] | < 1 | < 1
5 | Cc1cc(OCCCC(=O)NCCNC(=O)COCCOCCNC(=O)[C@H](CS(=O)(=O)O)NC(=O)CN2CCN(CC(=O)O)CCN(CC(=O)O)CCN(CC(=O)O)CC2)cc(C)c1S(=O)(=O)N[C@@H](CNC(=O)c1ccc(CCc2ccc3c(n2)NCCC3)cc1)C(=O)O [Compound G3, 2,2′,2″-(10-((R)-22-(4-(N—((S)-1-carboxy-2-(4-(2-(5,6,7,8-tetrahydro-1,8-naphthyridin-2-yl)ethyl)benzamido)ethyl)sulfamoyl)-3,5-dimethylphenoxy)-2,5,14,19-tetraoxo-4-(sulfomethyl)-9,12-dioxa-3,6,15,18-tetraazadocosyl)-1,4,7,10-tetraazacyclododecane-1,4,7-triyl)triacetic acid] | < 1 | < 1
6 | Cc1cc(OCCCC(=O)NCCNC(=O)[C@H](CS(=O)(=O)O)NC(=O)CCC(NC(=O)CN2CCN(CC(=O)O)CCN(CC(=O)O)CCN(CC(=O)O)CC2)C(=O)N[C@@H](CS(=O)(=O)O)C(=O)NCCNC(=O)CCCOc2cc(C)c(S(=O)(=O)N[C@@H](CNC(=O)c3ccc(CCc4ccc5c(n4)NCCC5)cc3)C(=O)O)c(C)c2)cc(C)c1S(=O)(=O)N[C@@H](CNC(=O)c1ccc(CCc2ccc3c(n2)NCCC3)cc1)C(=O)O (stereo partly drawn) [Compound H9] | < 1 | < 1
7 | O=C(O)CC(c1cncc(OCCCC(=O)NCCNC(=O)[C@H](CS(=O)(=O)O)NC(=O)[C@H](CS(=O)(=O)O)NC(=O)CN2CCN(CC(=O)O)CCN(CC(=O)O)CCN(CC(=O)O)CC2)c1)n1ccc2cc(OCCc3ccc4c(n3)NCCC4)ccc21 (stereo partly drawn) [Compound I21, 2,2′,2″-(10-((4R,7R)-16-((5-(2-carboxy-1-(5-(2-(5,6,7,8-tetrahydro-1,8-naphthyridin-2-yl)ethoxy)-1H-indol-1-yl)ethyl)pyridin-3-yl)oxy)-2,5,8,13-tetraoxo-4,7-bis(sulfomethyl)-3,6,9,12-tetraazahexadecyl)-1,4,7,10-tetraazacyclododecane-1,4,7-triyl)triacetic acid] | < 1 | < 1
8 | O=C(O)CC(c1cncc(OCCCC(=O)NCCNC(=O)[C@H](CS(=O)(=O)O)NC(=O)[C@H](CS(=O)(=O)O)NC(=O)CN2CCN(CC(=O)O)CCN(CC(=O)O)CCN(CC(=O)O)CC2)c1)n1ccc2c(CCc3ccc4c(n3)NCCC4)cccc21 (stereo partly drawn) [Compound J9, 2,2′,2″-(10-((4R,7R)-16-((5-(2-carboxy-1-(4-(2-(5,6,7,8-tetrahydro-1,8-naphthyridin-2-yl)ethyl)-1H-indol-1-yl)ethyl)pyridin-3-yl)oxy)-2,5,8,13-tetraoxo-4,7-bis(sulfomethyl)-3,6,9,12-tetraazahexadecyl)-1,4,7,10-tetraazacyclododecane-1,4,7-triyl)triacetic acid] | < 1 | 1 to 10
9 | Cc1cc(OCCCC(=O)NCCNC(=O)[C@H](CS(=O)(=O)O)NC(=O)CN2CCN(CC(=O)O)CCN(CC(=O)O)CCN(CC(=O)O)CC2)cc(C)c1S(=O)(=O)N[C@H](CNC(=O)CCCCc1ccc2c(n1)NCCC2)C(=O)O [Compound K8, 2,2′,2′-(10-(2-(((R)-1-((2-(4-(4-(N—((R)-1-carboxy-2-(5-(5,6,7,8-tetrahydro-1,8-naphthyridin-2-yl)pentanamido)ethyl)sulfamoyl)-3,5-dimethylphenoxy)butanamido)ethyl)amino)-1-oxo-3-sulfopropan-2-yl)amino)-2-oxoethyl)-1,4,7,10-tetraazacyclododecane-1,4,7-triyl)triacetic acid] | < 1 | 1 to 10
10 | Cc1cc(OCCCC(=O)NCCNC(=O)[C@H](CS(=O)(=O)O)NC(=O)CC[C@H](NC(=O)CN2CCN(CC(=O)O)CCN(CC(=O)O)CCN(CC(=O)O)CC2)C(=O)N[C@@H](CS(=O)(=O)O)C(=O)NCCNC(=O)CCCOc2cc(C)c(S(=O)(=O)N[C@@H](CNC(=O)c3ccc(CCc4cccc(N)n4)cc3)C(=O)O)c(C)c2)cc(C)c1S(=O)(=O)N[C@@H](CNC(=O)c1ccc(CCc2cccc(N)n2)cc1)C(=O)O [Compound L10] | < 1 | < 1
11 | Cc1cc(OCCCC(=O)NCCNC(=O)[C@H](CS(=O)(=O)O)NC(=O)CN2CCN(CC(=O)O)CCN(CC(=O)O)CCN(CC(=O)O)CC2)cc(C)c1S(=O)(=O)N[C@@H](CNC(=O)c1ccc(CCc2cccc(N)n2)cc1)C(=O)O [Compound M2, 2,2′,2″-(10-(2-(((R)-1-((2-(4-(4-(N—((S)-2-(4-(2-(6-aminopyridin-2-yl)ethyl)benzamido)-1-carboxyethyl)sulfamoyl)-3,5-dimethylphenoxy)butanamido)ethyl)amino)-1-oxo-3-sulfopropan-2-yl)amino)-2-oxoethyl)-1,4,7,10-tetraazacyclododecane-1,4,7-triyl)triacetic acid] | < 1 | < 1
12 | Cc1cc(OCCCC(=O)NCCNC(=O)[C@H](CS(=O)(=O)O)NC(=O)[C@H](CS(=O)(=O)O)NC(=O)CN2CCN(CC(=O)O)CCN(CC(=O)O)CCN(CC(=O)O)CC2)cc(C)c1S(=O)(=O)N[C@@H](CNC(=O)c1ccc(CCc2cccc(N)n2)cc1)C(=O)O [Compound N3, 2,2′,2″-(10-((4R,7R)-16-(4-(N—((S)-2-(4-(2-(6-aminopyridin-2-yl)ethyl)benzamido)-1-carboxyethyl)sulfamoyl)-3,5-dimethylphenoxy)-2,5,8,13-tetraoxo-4,7-bis(sulfomethyl)-3,6,9,12-tetraazahexadecyl)-1,4,7,10-tetraazacyclododecane-1,4,7-triyl)triacetic acid] | < 1 | < 1
